Assay results from patent US10239869B2, “Sulfonamide compounds as voltage-gated sodium channel modulators” (LUPIN LIMITED, priority 2015, dated 2019).
Read-outs that look alike come from different tables or passages of the source.

What was measured:
Nav 1.7 = Nav 1.7 (Homo sapiens (Human), UniProt Q15858); test: Inhibition of sodium channels, Red Membrane Potential Dye FLIPR assay, veratridine depolarization; format: cell-based; settings: HEK-293 cells overexpressing the channel; read-out: Nav1.7 IC50
Nav 1.7, sequence (Q15858 whole entry): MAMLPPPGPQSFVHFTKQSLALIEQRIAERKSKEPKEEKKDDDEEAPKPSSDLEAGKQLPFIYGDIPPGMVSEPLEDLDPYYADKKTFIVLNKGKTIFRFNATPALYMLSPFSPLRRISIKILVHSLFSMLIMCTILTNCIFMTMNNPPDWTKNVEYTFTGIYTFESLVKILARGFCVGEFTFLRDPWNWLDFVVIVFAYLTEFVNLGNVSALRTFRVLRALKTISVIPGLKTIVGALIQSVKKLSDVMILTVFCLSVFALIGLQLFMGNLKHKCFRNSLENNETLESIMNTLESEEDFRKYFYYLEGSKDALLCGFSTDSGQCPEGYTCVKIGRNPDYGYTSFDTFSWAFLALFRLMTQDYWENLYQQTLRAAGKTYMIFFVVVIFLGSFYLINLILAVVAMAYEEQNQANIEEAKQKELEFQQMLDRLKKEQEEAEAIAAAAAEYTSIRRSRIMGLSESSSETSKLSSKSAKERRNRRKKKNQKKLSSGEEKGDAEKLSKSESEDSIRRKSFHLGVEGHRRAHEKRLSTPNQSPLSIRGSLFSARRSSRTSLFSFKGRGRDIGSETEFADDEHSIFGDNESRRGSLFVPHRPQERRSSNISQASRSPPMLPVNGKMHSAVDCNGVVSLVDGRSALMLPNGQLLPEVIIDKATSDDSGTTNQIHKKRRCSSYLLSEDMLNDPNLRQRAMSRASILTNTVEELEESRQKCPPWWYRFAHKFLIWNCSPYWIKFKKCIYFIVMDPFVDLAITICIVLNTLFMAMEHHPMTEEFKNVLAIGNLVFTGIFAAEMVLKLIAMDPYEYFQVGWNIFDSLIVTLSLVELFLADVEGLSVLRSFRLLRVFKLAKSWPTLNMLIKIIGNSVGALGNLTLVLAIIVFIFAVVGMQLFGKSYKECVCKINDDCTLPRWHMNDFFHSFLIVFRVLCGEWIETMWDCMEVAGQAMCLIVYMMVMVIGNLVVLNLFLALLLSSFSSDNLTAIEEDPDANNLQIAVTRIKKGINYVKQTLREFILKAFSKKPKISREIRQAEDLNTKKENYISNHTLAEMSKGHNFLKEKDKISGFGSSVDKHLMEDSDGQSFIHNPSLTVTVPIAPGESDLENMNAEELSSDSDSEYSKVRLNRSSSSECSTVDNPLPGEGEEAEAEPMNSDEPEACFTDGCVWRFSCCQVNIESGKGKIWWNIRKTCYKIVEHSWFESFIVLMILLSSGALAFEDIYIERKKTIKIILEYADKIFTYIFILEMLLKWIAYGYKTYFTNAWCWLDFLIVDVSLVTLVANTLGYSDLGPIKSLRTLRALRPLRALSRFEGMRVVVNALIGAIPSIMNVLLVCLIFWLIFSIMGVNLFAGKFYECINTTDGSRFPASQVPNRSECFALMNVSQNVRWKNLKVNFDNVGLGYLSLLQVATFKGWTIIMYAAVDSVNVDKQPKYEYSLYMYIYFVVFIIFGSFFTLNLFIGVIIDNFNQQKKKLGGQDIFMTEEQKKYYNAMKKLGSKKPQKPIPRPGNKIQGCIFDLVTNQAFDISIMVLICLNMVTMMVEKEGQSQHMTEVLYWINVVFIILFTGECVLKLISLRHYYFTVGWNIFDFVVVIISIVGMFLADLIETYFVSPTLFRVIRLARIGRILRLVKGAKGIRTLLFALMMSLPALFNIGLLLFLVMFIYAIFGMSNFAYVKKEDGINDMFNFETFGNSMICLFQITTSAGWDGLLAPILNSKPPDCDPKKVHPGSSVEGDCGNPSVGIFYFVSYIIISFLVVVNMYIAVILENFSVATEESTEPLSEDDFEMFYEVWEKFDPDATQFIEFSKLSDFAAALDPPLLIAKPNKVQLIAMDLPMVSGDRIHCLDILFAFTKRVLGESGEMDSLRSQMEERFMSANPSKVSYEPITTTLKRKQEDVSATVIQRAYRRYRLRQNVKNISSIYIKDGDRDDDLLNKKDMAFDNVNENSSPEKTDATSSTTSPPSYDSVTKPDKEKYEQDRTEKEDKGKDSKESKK

Nav 1.5 = Nav 1.5 (Homo sapiens (Human), UniProt Q14524); test: as above; format: cell-based; settings: HEK-293 cells overexpressing the channel; for inhibition at 10 µM: HEK-293 cells overexpressing Nav 1.5
Nav 1.5, sequence (Q14524 whole entry): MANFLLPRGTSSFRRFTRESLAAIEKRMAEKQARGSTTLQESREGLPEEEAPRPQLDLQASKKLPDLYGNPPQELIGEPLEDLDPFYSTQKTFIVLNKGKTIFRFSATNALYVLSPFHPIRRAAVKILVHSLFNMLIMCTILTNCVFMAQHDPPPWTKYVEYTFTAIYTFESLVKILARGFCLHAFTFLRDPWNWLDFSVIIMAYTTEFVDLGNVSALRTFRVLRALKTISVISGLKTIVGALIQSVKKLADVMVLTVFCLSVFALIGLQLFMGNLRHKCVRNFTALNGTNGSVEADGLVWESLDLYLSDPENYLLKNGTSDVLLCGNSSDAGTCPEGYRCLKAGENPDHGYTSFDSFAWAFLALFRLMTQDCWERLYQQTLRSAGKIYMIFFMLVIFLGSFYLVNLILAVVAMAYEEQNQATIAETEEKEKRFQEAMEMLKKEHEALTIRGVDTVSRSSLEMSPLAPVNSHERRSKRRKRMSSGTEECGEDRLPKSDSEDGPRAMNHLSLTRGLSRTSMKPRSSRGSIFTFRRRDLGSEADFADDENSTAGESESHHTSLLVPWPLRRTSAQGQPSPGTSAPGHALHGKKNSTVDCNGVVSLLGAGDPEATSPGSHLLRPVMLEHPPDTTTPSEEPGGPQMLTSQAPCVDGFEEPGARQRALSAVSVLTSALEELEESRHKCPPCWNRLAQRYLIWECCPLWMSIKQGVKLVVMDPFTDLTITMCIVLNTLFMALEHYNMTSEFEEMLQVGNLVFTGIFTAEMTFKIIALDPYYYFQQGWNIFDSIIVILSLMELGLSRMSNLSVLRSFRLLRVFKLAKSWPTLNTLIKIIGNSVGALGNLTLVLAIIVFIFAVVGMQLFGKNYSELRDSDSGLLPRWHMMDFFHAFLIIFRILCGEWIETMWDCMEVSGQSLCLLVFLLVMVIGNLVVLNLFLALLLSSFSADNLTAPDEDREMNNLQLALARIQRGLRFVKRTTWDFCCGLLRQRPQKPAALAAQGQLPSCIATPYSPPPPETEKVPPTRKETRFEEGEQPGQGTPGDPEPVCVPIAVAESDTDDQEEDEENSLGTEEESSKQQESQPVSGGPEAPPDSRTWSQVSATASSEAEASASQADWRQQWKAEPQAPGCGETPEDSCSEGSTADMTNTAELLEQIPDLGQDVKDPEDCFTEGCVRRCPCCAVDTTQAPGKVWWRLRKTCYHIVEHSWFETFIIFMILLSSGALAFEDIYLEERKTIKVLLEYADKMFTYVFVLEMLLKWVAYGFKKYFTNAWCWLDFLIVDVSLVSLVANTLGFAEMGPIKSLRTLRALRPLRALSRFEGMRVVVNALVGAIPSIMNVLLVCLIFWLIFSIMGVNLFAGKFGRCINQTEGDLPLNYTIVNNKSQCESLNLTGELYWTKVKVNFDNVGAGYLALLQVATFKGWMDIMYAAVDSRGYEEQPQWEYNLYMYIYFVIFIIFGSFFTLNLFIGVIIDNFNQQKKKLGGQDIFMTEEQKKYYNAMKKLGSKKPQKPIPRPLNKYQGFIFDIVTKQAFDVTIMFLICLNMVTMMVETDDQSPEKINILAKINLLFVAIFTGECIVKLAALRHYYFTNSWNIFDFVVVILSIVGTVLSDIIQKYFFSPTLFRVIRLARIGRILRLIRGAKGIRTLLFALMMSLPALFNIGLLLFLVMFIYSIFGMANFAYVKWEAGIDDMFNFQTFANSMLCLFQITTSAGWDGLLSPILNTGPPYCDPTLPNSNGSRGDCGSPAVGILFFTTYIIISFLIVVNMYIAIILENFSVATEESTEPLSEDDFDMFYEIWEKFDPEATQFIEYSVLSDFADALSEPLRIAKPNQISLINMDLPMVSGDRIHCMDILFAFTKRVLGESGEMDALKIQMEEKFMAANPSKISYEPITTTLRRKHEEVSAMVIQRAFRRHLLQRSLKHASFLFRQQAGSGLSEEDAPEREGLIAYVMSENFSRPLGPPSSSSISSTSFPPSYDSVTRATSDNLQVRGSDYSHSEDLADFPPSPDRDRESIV

[1] = read-out: Nav1.5 IC50 (bound given in μM)

SMILES | IC50 (Nav 1.7) | IC50 (Nav 1.5; [1]) | inhibition at 10 µM (Nav 1.5) | IC50 (Nav 1.5; read-out: Nav1.5 IC50)
O=C(O)c1ccc(-c2cc(C(F)(F)F)ccc2[C@H]2CCOc3cc(S(=O)(=O)Nc4cccnn4)ccc32)cc1 (racemic) [Example-191, (R/S)-2′-(7-(N-(pyridazin-3-yl)sulfamoyl)chroman-4-yl)-5′-(trifluoromethyl)-[1,1′-biphenyl]-4-carboxylic acid] | 671 nM | > 10 µM | – | –
O=C(O)c1ccc(-c2cc(C(F)(F)F)ccc2[C@H]2CCOc3cc(S(=O)(=O)Nc4cccc(F)n4)ccc32)cc1 (racemic) [Example-192, (R/S)-2′-(7-(N-(6-fluoropyridin-2-yl)sulfamoyl)chroman-4-yl)-5′-(trifluoromethyl)-[1,1′-biphenyl]-4-carboxylic acid] | 8 nM | > 10 µM | – | –
O=C1OCCN1c1cc(C(F)(F)F)ccc1[C@H]1CCOc2cc(S(=O)(=O)Nc3ncccn3)ccc21 (racemic) [Example-207, (R/S)-4-(2-(2-oxooxazolidin-3-yl)-4-(trifluoromethyl)phenyl)-N-(pyrimidin-2-yl)chroman-7-sulfonamide] | 49 nM | > 10 µM | – | –
O=C1OCCN1c1cc(C(F)(F)F)ccc1[C@H]1CCOc2cc(S(=O)(=O)Nc3ncc(F)cn3)ccc21 (racemic) [Example-208, (R/S)—N-(5-fluoropyrimidin-2-yl)-4-(2-(2-oxooxazolidin-3-yl)-4-(trifluoromethyl)phenyl)chroman-7-sulfonamide] | 46 nM | > 10 µM | – | –
O=C1OCCN1c1cc(C(F)(F)F)ccc1[C@H]1CCOc2cc(S(=O)(=O)Nc3cccnn3)ccc21 (racemic) [Example-209, (R/S)-4-(2-(2-oxooxazolidin-3-yl)-4-(trifluoromethyl)phenyl)-N-(pyridazin-3-yl)chroman-7-sulfonamide] | 47 nM | – | 28% | –
O=C1OCCN1c1cc(C(F)(F)F)ccc1[C@H]1CCOc2cc(S(=O)(=O)Nc3cccc(F)n3)ccc21 (racemic) [Example-210, (R/S)—N-(6-fluoropyridin-2-yl)-4-(2-(2-oxooxazolidin-3-yl)-4-(trifluoromethyl)phenyl)chromane-7-sulfonamide] | 48 nM | > 10 µM | – | –
O=S(=O)(Nc1ncccn1)c1ccc2c(c1)OCC[C@@H]2c1ccc(C(F)(F)F)cc1CCC(F)F (racemic) [Example-211, (R/S)-4-(2-(3,3-difluoropropyl)-4-(trifluoromethyl)phenyl)-N-(pyrimidin-2-yl)chroman-7-sulfonamide] | 7 nM | – | – | 0.777 µM
O=S(=O)(Nc1ncc(F)cn1)c1ccc2c(c1)OCC[C@@H]2c1ccc(C(F)(F)F)cc1CCC(F)F (racemic) [Example-212, (R/S)-4-(2-(3,3-difluoropropyl)-4-(trifluoromethyl)phenyl)-N-(5-fluoropyrimidin-2-yl)chroman-7-sulfonamide] | 18 nM | > 10 µM | – | –
O=S(=O)(Nc1ccncn1)c1ccc2c(c1)OCC[C@@H]2c1ccc(C(F)(F)F)cc1CCC(F)F (racemic) [Example-213, (R/S)-4-(2-(3,3-difluoropropyl)-4-(trifluoromethyl)phenyl)-N-(pyrimidin-4-yl)chroman-7-sulfonamide] | 34 nM | – | 65% | –
O=S(=O)(Nc1cccnn1)c1ccc2c(c1)OCC[C@@H]2c1ccc(C(F)(F)F)cc1CCC(F)F (racemic) [Example-214, (R/S)-4-(2-(3,3-difluoropropyl)-4-(trifluoromethyl)phenyl)-N-(pyridazin-3-yl)chroman-7-sulfonamide] | 2 nM | – | – | 0.635 µM
O=S(=O)(Nc1cccc(F)n1)c1ccc2c(c1)OCC[C@@H]2c1ccc(C(F)(F)F)cc1CCC(F)F (racemic) [Example-215, (R/S)-4-(2-(3,3-difluoropropyl)-4-(trifluoromethyl)phenyl)-N-(6-fluoropyridin-2-yl)chromane-7-sulfonamide] | 38 nM | – | – | 1.35 µM
